Data taken from US20170051014A1, “PEPTIDE HAVING EFFICACY FOR REMEDYING HYPOPIGMENTATION AND INHIBITING ADIPOGENESIS, AND USE OF SAME” (CAREGEN CO., LTD., priority 2014, published 2017).
Bridge positions count the residues as written; N and C are the ends.

What was measured:
[1] = cited from earlier work; for side effects / weight loss effect: background statement on marketed anti-obesity drugs
CREB = experiment: Melanogenesis signaling molecules by western blot: CREB phosphorylation; assay type: cell-based, mouse; details: B16F10 cells, observed over time (6 to 24 hours)
Procedure: (§1) Melanocytes (B16F10 cell line) were incubated on 6-well culture plates in an incubator for 24 hours, and were treated with the peptide of the present invention with different concentrations. After the cells were incubated for from 6 to 24 hours, the cells were dissolved, and then the CREB phosphorylation and MITF expression, which are signaling molecules involved in melanogenesis, were observed by western blot assay using antibodies specific thereto. The test was carried out using anti-pCREB antibody (Santa Cruz Biotechnology, USA) and anti-MITF antibody (Santa Cruz Biotechnology, USA).

perilipin = experiment: Adipogenesis-related gene expression by RT-PCR: perilipin; assay type: cell-based; details: 3T3-L1 cells with differentiation inducing material, incubation for 7 days
Procedure: (§2) Pre-adipocytes (3T3-L1 cell line) were incubated on 6-well plates for 48 hours, and then treated with the present peptide with different concentrations together with a differentiation composition (0.5 mM IBMX, […], […]), followed by incubation for 7 days. After the incubation, PT-PCR was conducted using primers specific to perilipin and PPARγ, which are genes involved in the adipogenesis mechanism. It was investigated whether the mRNA values of perilipin and PPARγ were inhibited.
(§3) Target-specific primer sequences used in PCR for enzymes involved in adipogenesis were as follows: perilipin forward primer sequence, 5′-[…]-3′ and perilipin reverse primer sequence, 5′-[…]-3′ (annealing temperature, 60° C.); PPARγ forward primer sequence, 5′-[…]-3′ and PPARγ reverse primer sequence, 5′-[…]-3′ (annealing temperature, 60° C.)

tyrosinase [2] = experiment: Melanogenic enzyme protein level by western blot: tyrosinase; assay type: cell-based, mouse; details: B16F10 cells, 6-hour treatment and 24-hour treatment
Procedure: Melanocytes (B16F10 cell line) were incubated on 6-well culture plates in an incubator for 24 hours, and were treated with the peptide of the present invention with different concentrations. […] The test was conducted using an anti-tyrosinase antibody (Santa Cruz Biotechnology, USA).

PPARγ = experiment: Adipogenesis-related gene expression by RT-PCR: PPARγ; assay type: cell-based; details: 3T3-L1 cells with differentiation inducing material, incubation for 7 days
Procedure: as §2, §3

TRP1 = experiment: Melanogenic enzyme gene level by RT-PCR: TRP1; assay type: cell-based, mouse; details: B16F10 cells, 6-hour treatment and 24-hour treatment
Procedure: (§4) Melanocytes (B16F10 cell line) were incubated on 6-well culture plates in an incubator for 24 hours, and were treated with the peptides of the present invention with different concentrations. After the incubation for hours, the cells were taken off, and then, the increases in the expressions of tyrosinase and TRP1, which are enzymes involved in melanogenesis, were observed by RT-PCR using primers specific thereto.
(§5) Target-specific primer sequences used in PCR for enzymes involved in melanogenesis were as follows: Tyrosinase forward primer sequence, 5′-[…]-3′ and tyrosinase reverse primer sequence, 5′-[…]-3′ (annealing temperature, 51° C.); TRP1 forward primer sequence, 5′-[…]-3′ and TRP1 reverse primer sequence, 5′-[…]-3′ (annealing temperature, 60° C.)

tyrosinase [3] = experiment: Melanogenic enzyme gene level by RT-PCR: tyrosinase; assay type: cell-based, mouse; details: B16F10 cells, 6-hour treatment and 24-hour treatment
Procedure: as §4, §5

MITF = experiment: Melanogenesis signaling molecules by western blot: MITF; assay type: cell-based, mouse; details: B16F10 cells, observed over time (6 to 24 hours)
Procedure: as §1, with “[…],” for “and then the CREB phosphorylation and MITF expression,”

[4] = tested on: Pre-adipocytes (3T3-L1 cell line); experiment: Measurement of triglyceride amount in differentiating pre-adipocytes; assay type: cell-based; details: 3T3-L1 cells with differentiation inducing material, incubation for 7 days, absorbance 540 nm
Procedure: Pre-adipocytes (3T3-L1 cell line) were incubated on 24-well plates for 48 hours, and then treated with the peptide of the present invention with different concentrations together with a differentiation composition (0.5 mM IBMX, […], […]), followed by incubation for 7 days. The cells were taken off, and then put in a dissolution buffer (50 mM Tris, 150 mM NaCl, 1% Triton X-100, proteolytic enzyme inhibitor), and kept in ice for 30 minutes. After centrifugation at 14,000 g for 10 minutes, the supernatant containing an oil layer was collected, and a triglyceride reagent was added thereto, followed by reaction in an incubator at 37° C. for 5 minutes. The absorbance was measured at 540 nm to determine the amount of triglycerides.

In the case of CC(C)CC(N(C)C)C1(c2ccc(Cl)cc2)CCC1 (stereo not shown) [Reductil], the side effects [1] is given as “cardiovascular diseases, such as stroke and myocardial infarction” and the weight loss effect [1] is given as 5-10%.
For CCCCCCCCCCC[C@@H](C[C@@H]1OC(=O)[C@H]1CCCCCC)OC(=O)[C@H](CC(C)C)NC=O [Xenical], the side effects [1] is given as “frequent diarrhea” and the weight loss effect [1] is given as 2-3%.
In the case of Cn1c(=O)c2[nH]cnc2n(C)c1=O [aminophylline], the “effect of reducing body fat” value ([1]; background statement on anti-obesity drugs) is listed as “excellent effect of reducing body fat” and the side effects [1] is listed as “broad side effects throughout the mental nervous system, circulatory system, and digestive system”.
In the case of “NH2-Gln-Cys-Arg-Phe-Phe-Arg-Ser-Ala-Cys-COOH (H-QCRFFRSAC-OH; cysteine pairing not given here) [SEQ ID NO: 1]”, the “phosphorylation level of CREB” value (CREB) is reported as “increased”, the “gene expression of perilipin” value (perilipin) is reported as “reduced compared with a control” and the “expression of tyrosinase protein” value (tyrosinase [2]) is reported as “increased compared with a control”. The “gene expression of PPARγ” value (PPARγ) was “reduced compared with a control”, the “expression of TRP1 gene” value (TRP1) was “increased compared with a control” and the “expression of tyrosinase gene” value (tyrosinase [3]) was “increased compared with a control”. For the same molecule, the “MITF protein expression level” value (MITF) was “increased” and the “level of triglycerides accumulated in cells” value [4] was “reduced in a concentration-dependent manner”.
In the case of “NH2-Tyr-Cys-Arg-Phe-Phe-Asn-Ala-Phe-Cys-COOH (H-YCRFFNAFC-OH; disulfide 2-9 (inferred)) [SEQ ID NO: 2]”, the “phosphorylation level of CREB” value (CREB) is reported as “increased”, the “gene expression of perilipin” value (perilipin) is reported as “reduced compared with a control” and the “expression of tyrosinase protein” value (tyrosinase [2]) is reported as “increased compared with a control”. For the same molecule, the “gene expression of PPARγ” value (PPARγ) was “reduced compared with a control”, the “expression of TRP1 gene” value (TRP1) was “increased compared with a control” and the “expression of tyrosinase gene” value (tyrosinase [3]) was “increased compared with a control”. The “MITF protein expression level” value (MITF) was “increased” and the “level of triglycerides accumulated in cells” value [4] was “reduced in a concentration-dependent manner”.
